SMILES strings stand for the structures.

For the test, the system named is A549 cells. As to the kind of experiment: Cytotoxicity on human tumor line A549 (neutral red). The note with it: 96 hours incubation. The test is classed as cell-based. As for the experimental part: The Cytotoxic Biological Activity on Human Tumor Lines is Determined According to the Following Experimental Protocol:
The human cell lines KB and A549 are obtained from the ATCC (American Type Culture Collection, Rockville, USA). The A549 cells are cultured as a layer in a culture flask in RPMI 1640 medium, L-glutamine to 2 mM, 200 U/ml penicillin, 200 μg/ml streptomycin and supplemented with 10% heat-inactivated fetal calf serum. The KB cells are cultured as a layer in a culture flask in Dulbelco's medium containing L-glutamine to 2 mM, 200 U/ml penicillin, 200 μg/ml streptomycin and supplemented with 10% heat-inactivated fetal calf serum.
The cells in exponential growth phase are trypsinized, washed in PBS 1×, and inoculated in 96-well microplates (Costar) at a concentration of 4×10^4 cells/ml for A549 and 1.5×10^4 cells/ml (0.2 ml/well) for KB cells. The cells are then incubated for 96 hours in the presence of variable concentrations of test compounds (10, 1, 0.1 and 0.01 μg/ml, each point being determined in quadruplicate). Sixteen hours before the end of the incubation, neutral red is added to a final concentration of 0.02% in each well. […] The cellular incorporation of the dye, which reflects the cell growth, is evaluated by spectrophotometry at a wavelength of 540 nm for each sample using a Dynatech MR5000 reading machine. […]

The term IC50 denotes the concentration that gives 50% inhibition. Consider `CSc1nc(Nc2ccc3nc(C)cc(N)c3c2)nc(OC2CCN(C)CC2)n1` [Example 3, N6-[6-(1-methylpiperid-4-yloxy)-4-methylsulfanyl-[1,3,5]triazin-2-yl]-2-methylquinoline-4,6-diamine], for which it took 6 µM to reach half-maximal inhibition (IC50).
